Test results from ChEMBL document CHEMBL3751696, “Mollisolactones A and B, novel dinormonoterpenes from the soft coral Sinularia mollis” (2016).
In brackets after ≈: the same amount, converted by molar mass. Activity calls are given as the source filed them. The calls are words filed in the database; no cut-off is given here.

Experiments:
P388 = assay: Cytotoxicity against mouse P388 cells by MTT assay; type: functional; settings: read-out: ED50 (the source's name)
Human betaherpesvirus 5 = assay: Antiviral activity against Human cytomegalovirus at 50 ug/ml; type: functional, organism-based
A549 = assay: Cytotoxicity against human A549 cells by MTT assay; type: functional; settings: read-out: ED50 (the source's name)
HT-29 = assay: Cytotoxicity against human HT-29 cells by MTT assay; type: functional; settings: read-out: ED50 (the source's name)

Row | Compound | EC50 (P388) [µg/mL] | Activity (Human betaherpesvirus 5) | EC50 (A549) [µg/mL] | EC50 (HT-29) [µg/mL]
1 | CC(=O)CC1OC(=O)C=C1C (stereo not drawn) | 56 (≈ 363 µM) | inactive | 53 (≈ 344 µM) | 51 (≈ 331 µM)
2 | CC(=O)CC1C=C(C)C(=O)O1 (stereo not drawn) | 52 (≈ 337 µM) | inactive | 56 (≈ 363 µM) | 58 (≈ 376 µM)
